Active and inactive are the calls of the source. The rule behind the calls is not given here.
Assays:
[1] = molecular target: T1, Nuclear factor erythroid 2-related factor 2 (Homo sapiens, UniProt Q16236); experiment: Activation of Nrf2 in human HaCaT-ARE-Luc cells expressing Nqo1 ARE-Luc reporter plasmid incubated for 6 hrs by luciferase reporter gene assay; assay type: cell-based
T1 sequence (Q16236 whole entry): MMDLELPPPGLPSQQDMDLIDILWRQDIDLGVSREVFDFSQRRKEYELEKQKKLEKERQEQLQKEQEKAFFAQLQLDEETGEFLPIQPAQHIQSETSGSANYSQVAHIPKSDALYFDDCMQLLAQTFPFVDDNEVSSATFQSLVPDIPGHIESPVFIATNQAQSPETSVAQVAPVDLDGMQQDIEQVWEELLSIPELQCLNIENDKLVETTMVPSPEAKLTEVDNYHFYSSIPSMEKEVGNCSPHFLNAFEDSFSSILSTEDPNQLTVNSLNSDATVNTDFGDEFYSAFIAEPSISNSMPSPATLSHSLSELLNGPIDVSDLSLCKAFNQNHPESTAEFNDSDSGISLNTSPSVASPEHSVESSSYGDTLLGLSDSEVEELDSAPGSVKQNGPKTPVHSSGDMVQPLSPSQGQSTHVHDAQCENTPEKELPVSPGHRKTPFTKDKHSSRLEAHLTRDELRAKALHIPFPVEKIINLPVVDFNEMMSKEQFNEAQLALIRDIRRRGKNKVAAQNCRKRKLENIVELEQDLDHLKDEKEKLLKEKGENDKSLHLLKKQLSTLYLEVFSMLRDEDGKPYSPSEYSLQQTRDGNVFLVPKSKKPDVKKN

[2] = Inhibition of TNFalpha-induced NFkappaB (unknown origin) expressed in mouse NIH3T3-KBF-Luc cells pre-incubated for 15 mins before TNFalpha stimulation for 6 hrs by luciferase reporter gene assay; assay type: cell-based, Homo sapiens
[3] = molecular target: T2, Nuclear factor erythroid 2-related factor 2 (Homo sapiens) (UniProt Q16236); experiment: Activation of Nrf2 in human HaCaT-ARE-Luc cells expressing Nqo1 ARE-Luc reporter plasmid at 0.1 to 50 uM in presence of 15 mM NAC incubated for 6 hrs by luciferase reporter gene assay; assay type: cell-based
T2 sequence (whole entry): T1 sequence (Q16236 whole entry)

HaCaT [4] = experiment: Induction of ROS production in human HaCaT cells at 10 uM incubated for 3 hrs by DCFH-DA staining based fluorimetry; assay type: functional, cell-based
HaCaT [5] = experiment: Induction of ROS production in human HaCaT cells at 400 uM incubated for 3 hrs by DCFH-DA staining based fluorimetry; assay type: functional, cell-based
Homo sapiens = species on record: Homo sapiens; experiment: Inhibition of TNFalpha-induced NFkappaB (unknown origin) canonical pathway expressed in mouse NIH3T3-KBF-Luc cells assessed as inhibition of IkappaB-alpha phosphorylation pre-incubated for 15 mins before TNFalpha stimulation for 6 hrs by Western blot analysis; assay type: cell-based
[6] = molecular target: Transcription factor p65 (Homo sapiens) (UniProt Q04206); experiment: Inhibition of TNFalpha-induced NFkappaB (unknown origin) canonical pathway expressed in mouse NIH3T3-KBF-Luc cells assessed as inhibition of p65 phosphorylation pre-incubated for 15 mins before TNFalpha stimulation for 6 hrs by Western blot analysis; assay type: cell-based
Transcription factor p65 (Homo sapiens), sequence (Q04206 whole entry): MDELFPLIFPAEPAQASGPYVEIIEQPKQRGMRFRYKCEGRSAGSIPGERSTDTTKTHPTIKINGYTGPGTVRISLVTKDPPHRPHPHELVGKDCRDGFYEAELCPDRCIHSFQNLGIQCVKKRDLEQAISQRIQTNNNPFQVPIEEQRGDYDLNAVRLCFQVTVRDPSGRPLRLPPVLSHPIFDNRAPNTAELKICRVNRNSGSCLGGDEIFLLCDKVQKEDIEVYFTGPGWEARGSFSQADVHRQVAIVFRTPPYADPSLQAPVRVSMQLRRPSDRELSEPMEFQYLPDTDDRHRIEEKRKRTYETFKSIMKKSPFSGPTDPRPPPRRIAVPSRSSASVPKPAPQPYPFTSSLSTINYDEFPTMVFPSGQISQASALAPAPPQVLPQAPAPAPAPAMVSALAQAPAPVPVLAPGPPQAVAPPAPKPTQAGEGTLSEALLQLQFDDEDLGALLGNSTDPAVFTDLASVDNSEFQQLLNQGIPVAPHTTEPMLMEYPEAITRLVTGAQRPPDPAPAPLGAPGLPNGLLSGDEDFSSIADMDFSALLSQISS

| EC50 [1] | IC50 [2] | SMILES | further results |
| --- | --- | --- | --- |
| 16.2 µM | > 50 µM | CC(C)=CCC/C(C)=C/COC1C=C(C)C(=O)O1 (stereo not drawn) |  |
| 29.5 µM | > 50 µM | CC(C)=CCOC1C=C(C)C(=O)O1 (stereo not drawn) |  |
| 17.8 µM | > 50 µM | CC1=CC(O/C=C2/C(=O)[C@H](C(C)C)CC[C@H]2C)OC1=O (stereo partly drawn) |  |
| > 50 µM | > 50 µM | C=C(C)[C@@H]1CC[C@]2(C(=O)OC)CC[C@]3(C)[C@H](CC[C@@H]4[C@@]5(C)C/C(=C\OC6C=C(C)C(=O)O6)C(=O)C(C)(C)[C@@H]5CC[C@]43C)[C@@H]12 (stereo partly drawn) |  |
| 1.6 µM | > 50 µM | C=C(C)[C@@H]1CC=C(C)C(=O)/C1=C/OC1C=C(C)C(=O)O1 (stereo partly drawn) |  |
| 15.5 µM | > 50 µM | CC1=CC(OCC2=CC3CC(C2)C3(C)C)OC1=O (stereo not drawn) |  |
| 1.2 µM | 7.9 µM | CC1=CC(O/C=C2\C[C@]3(C)C(COc4ccc5ccc(=O)oc5c4)[C@](C)(O)CC[C@H]3C(C)(C)C2=O)OC1=O (stereo partly drawn) | Activity [3]: inactive; Activity (HaCaT [4]): inactive |
| > 50 µM | > 50 µM | CC1=CC(O/C=C2\C[C@]3(C)[C@H]4CC=C5[C@@H]6[C@@H](C)[C@H](C)CC[C@]6(C)CC[C@@]5(C)[C@]4(C)CC[C@H]3C(C)(C)C2=O)OC1=O (stereo partly drawn) |  |
| > 50 µM | > 50 µM | COC(=O)[C@@]1(C)CC[C@]2(C)CC[C@]3(C)C(=CC(=O)[C@@H]4[C@@]5(C)C/C(=C\OC6C=C(C)C(=O)O6)C(=O)C(C)(C)[C@@H]5CC[C@]43C)[C@@H]2C1 (stereo partly drawn) |  |
| 1.2 µM |  | CC1=C[C@H](O/C=C2/C(=O)O[C@@H]3C4=C(C[C@H]23)[C@@H](O)CCC4(C)C)OC1=O [STRIGOL] |  |
| 26.3 µM | > 50 µM | CC1=CC(OC2C[C@H](C)CC[C@H]2C(C)C)OC1=O (stereo partly drawn) |  |
| 16.3 µM | > 50 µM | CC1=CC(OCc2ccc(C(C)C)cc2)OC1=O (stereo not drawn) |  |
| > 50 µM | > 50 µM | COC(=O)[C@]12CCC(C)(C)C[C@H]1C1=CC[C@@H]3[C@@]4(C)C/C(=C\OC5C=C(C)C(=O)O5)C(=O)C(C)(C)[C@@H]4CC[C@@]3(C)[C@]1(C)CC2 (stereo partly drawn) |  |
| 1.9 µM | > 50 µM | CC1=CC(O/C=C2/C(=O)C(C)[C@H]3C[C@@]23C(C)C)OC1=O (stereo partly drawn) |  |
| > 50 µM | > 50 µM | CC1=CC(O/C=C2\C[C@]3(C)[C@H]4CC=C5[C@@H]6CC(C)(C)CC[C@]6(C)CC[C@@]5(C)[C@]4(C)CC[C@H]3C(C)(C)C2=O)OC1=O (stereo partly drawn) |  |
| 22.8 µM | > 50 µM | CC(C)=CCCC(C)CCOC1C=C(C)C(=O)O1 (stereo not drawn) |  |
| > 50 µM | > 50 µM | C=C(C)[C@@H]1CC[C@]2(C)CC[C@]3(C)[C@H](CC[C@@H]4[C@@]5(C)C/C(=C\OC6C=C(C)C(=O)O6)C(=O)C(C)(C)[C@@H]5CC[C@]43C)[C@@H]12 (stereo partly drawn) |  |
|  |  | CC(C)(C)OO | Activity (HaCaT [5]): Active |
| 5 µM | > 50 µM | CC1=CC(O/C=C2/C(=O)C(=C(C)C)CC[C@H]2C)OC1=O (stereo partly drawn) |  |
| > 50 µM | > 50 µM | COC(=O)[C@]12CC[C@@H](C)[C@H](C)[C@H]1C1=CC[C@@H]3[C@@]4(C)C/C(=C\OC5C=C(C)C(=O)O5)C(=O)C(C)(C)[C@@H]4CC[C@@]3(C)[C@]1(C)CC2 (stereo partly drawn) | inhibition (Homo sapiens): inactive; inhibition [6]: inactive |
| 2.5 µM |  | COC(=O)/C(C)=C/CC/C(C)=C/CC/C(C)=C/CC[C@@H]1[C@@]2(C)C/C(=C\OC3C=C(C)C(=O)O3)C(=O)C(C)(C)C2CC[C@@]1(C)O (stereo partly drawn) |  |

Reference: ChEMBL document CHEMBL4339224, “Identification of a Strigoterpenoid with Dual Nrf2 and Nf-κB Modulatory Activity” (ACS Med Chem Lett, 2019)
